pKi: −log10 of the molar value.
Columns and labels:
Pf20S β5 = Pf20S β5 (Plasmodium falciparum, UniProt A0A5K1K7U1+Q8IJT1); test: Kinetic analysis, Pf20S β5 (Ac-WLA-AMC); format: biochemical, P. falciparum; details: Figure S3D
Protocol: (§1) Figure S 3. Kinetic analysis of MPI -4 against Pf20S and human constitutive 20S proteasome.
(§2) The association rate K on, half -life t 1/2 and equilibrium constant Ki for MPI -4 against human constitutive 20S (A, B) and Pf20S (C, D). 20S β2 (A, C) and β5 (B, D) activities were determined using fluorogenic substrates, Ac -RQR-AMC (human) or Ac -WLR-AMC ( P. falciparum ) and Ac - […]

[1] = target: T1, human constitutive 20S proteasome β5c (Homo sapiens, UniProt P20618+P28074); test: Kinetic analysis, human constitutive 20S β5 (Ac-WLA-AMC); format: biochemical; details: Figure S3B
T1 construct: Residue positions are calculated at the start of the processed protein, and the first residue (Thr 1)
Protocol: as §1, §2

[2] = tested on: Cam3.II^R539T early ring stages; test: Isobologram analysis of interaction with DHA, 3 h pulse; format: cell-based, P. falciparum; details: early ring stages of K13 mutant Cam3.II^R539T, 3 h pulses
Protocol: (§3) Figure 1 Structures, proteasome inhibition, and isobologram analysis of selected compounds. (A) Structures of MPI-1, MPI-2, MPI-3, and MPI-4 (compounds 1–4). (B) GFP-DD transfectants were maintained in Shield-1 for 24 h before wash-out prior to setting up experiments. Trophozoites were re-exposed to Shield-1 or exposed to indicated compounds for 3 h. Results are representative of four independent experiments. (i) Cell extracts were analyzed by Western blot using anti-GFP or anti-PfBiP as a loading control. (ii) GFP fluorescence measured by flow cytometry. Dotted line represents background (fluorescence of sample after washout of Shield-1). Data are the mean ± range/2 for the readings in technical duplicate from one experiment. […]
For standard assays of antiplasmodial activity, sorbitol-treated ring stage parasites were incubated with the drugs for 72 h and viability was assessed in the second cycle.[12] […] Cells were then stained with 2 μM Syto-61 (Thermo Fisher Scientific), and their fluorescence was measured by flow cytometry (FACSCanto II cytometer; Becton Dickinson). Data were gated and analyzed using FCS Express software (version 3) to determine parasitemia of each sample. […] Interactions between DHA and MPI-1 or MPI-4 against the K13 mutant (DHA resistant) Cam3.II P. falciparum strain, exposed to a 3 h pulsed treatment, were determined at 4 h after invasion as described previously.[12]

[3] = target: human constitutive 20S proteasome β2c (Homo sapiens, UniProt P49720+Q99436); test: Kinetic analysis, human constitutive 20S β2 (Ac-RQR-AMC); format: biochemical; details: Figure S3A
Protocol: as §1, §2

Pf20S β2 = Pf20S β2 (Plasmodium falciparum, UniProt Q8I261+Q8I6T3); test: Kinetic analysis, Pf20S β2 (Ac-WLR-AMC); format: biochemical, P. falciparum; details: Figure S3C
Sequence of Pf20S β2 (Q8I6T3 entry or part of it): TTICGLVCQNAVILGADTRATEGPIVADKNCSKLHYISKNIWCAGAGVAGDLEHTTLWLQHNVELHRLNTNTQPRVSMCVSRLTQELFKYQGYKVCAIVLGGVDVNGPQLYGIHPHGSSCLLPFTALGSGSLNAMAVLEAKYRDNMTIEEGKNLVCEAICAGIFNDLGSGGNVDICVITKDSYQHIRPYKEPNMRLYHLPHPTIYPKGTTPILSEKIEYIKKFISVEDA
Sequence of Pf20S β2 (Q8I261 entry or part of it): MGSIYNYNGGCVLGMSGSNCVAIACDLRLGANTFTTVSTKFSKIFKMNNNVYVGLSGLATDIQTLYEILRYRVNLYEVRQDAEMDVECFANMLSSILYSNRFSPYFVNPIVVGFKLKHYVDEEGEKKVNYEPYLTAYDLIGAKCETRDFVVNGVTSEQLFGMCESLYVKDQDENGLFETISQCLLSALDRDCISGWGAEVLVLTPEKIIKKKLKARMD
Protocol: as §1, §2

[4] = tested on: Cam3.II^R539T early ring stages; design: method as in PMID 25901609; details: P. falciparum in culture; cited from earlier work
[5] = tested on: P. falciparum proteasome activity in cells (GFP-DD transfectants); test: GFP-DD reporter degradation in transfectants (Western blot, flow cytometry); format: cell-based; details: trophozoites, 3 h exposure
Protocol: as §3, with “experiment. Curves are fitted with the sigmoidal four-parameter model. (C) Isobologram analysis of the interaction of test compounds and DHA. Cam3.II (DHA resistant) parasites at very early ring stages were subjected to 3 h pulses in the presence of different combinations of DHA and test compounds.” for “experiment.”
Trophozoite-stage parasite cultures (GFP-DD parasites) at 5% hematocrit and 5% parasitemia were subjected to the drug treatment indicated in the figure legends at 37 °C. […] Syto-61 and GFP fluorescence was recorded using the FACSCanto II cytometer (Becton Dickinson). […] Parasites were gated based on parasite GFP fluorescence, and values reported are mean fluorescence. […]

3D7 B2a = test: 72 h viability assay, bortezomib-resistant clone B2a; format: cell-based, Plasmodium falciparum; details: mean ± SEM, n=3
Protocol: For standard assays of antiplasmodial activity, sorbitol-treated ring stage parasites were incubated with the drugs for 72 h and viability was assessed in the second cycle.[12] Drug pulse assays were performed as described previously.[47] For short pulse assays, tightly synchronized early ring stage parasites (1–3 h after invasion) at 0.2% hematocrit and 1–2% parasitemia were subjected to 3 h drug pulse at 37 °C and returned to culture until parasites reached trophozoite stage of the following cycle. Cells were then stained with 2 μM Syto-61 (Thermo Fisher Scientific), and their fluorescence was measured by flow cytometry (FACSCanto II cytometer; Becton Dickinson). Data were gated and analyzed using FCS Express software (version 3) to determine parasitemia of each sample. Viability represents the parasitemia normalized to untreated and “kill treated” controls, where “kill treated” refers to samples treated with 2 μM DHA for 48–72 h. Interactions between DHA and MPI-1 or MPI-4 against the K13 mutant (DHA resistant) Cam3.II P. falciparum strain, exposed to a 3 h pulsed treatment, were determined at 4 h after invasion as described previously.[12]
Prior to selection, an aliquot of the parental line was stocked as a reference for subsequent whole genome sequencing analysis. […] Paired-end reads were either aligned to the P. falciparum 3D7 reference genome (PlasmoDB version 13.0).

Sequence of Pf20S β5 (Q8IJT1 entry or part of it): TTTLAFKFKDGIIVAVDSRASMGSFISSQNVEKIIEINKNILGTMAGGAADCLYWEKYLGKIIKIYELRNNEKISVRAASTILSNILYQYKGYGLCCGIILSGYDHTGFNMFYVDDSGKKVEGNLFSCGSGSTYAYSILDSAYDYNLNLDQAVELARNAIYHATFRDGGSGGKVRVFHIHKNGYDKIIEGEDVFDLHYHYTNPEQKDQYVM
Sequence of Pf20S β5 (A0A5K1K7U1 entry or part of it): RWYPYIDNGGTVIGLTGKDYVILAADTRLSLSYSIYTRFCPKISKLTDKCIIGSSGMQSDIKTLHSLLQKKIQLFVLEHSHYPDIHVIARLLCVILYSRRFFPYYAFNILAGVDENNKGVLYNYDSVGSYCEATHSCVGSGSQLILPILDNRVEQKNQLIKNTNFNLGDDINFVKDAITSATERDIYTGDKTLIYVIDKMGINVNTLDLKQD

| SMILES | koff (Pf20S β5; read-out: Koff, Pf 20S β5) [s⁻¹] | kon (Pf20S β5; read-out: association rate Kon, Pf 20S β5) [M⁻¹ s⁻¹] | pKi (Pf20S β5; equilibrium constant, read-out: Ki, P. falciparum β5) | koff ([1]; read-out: Koff, h20S β5) [s⁻¹] | kon ([1]; read-out: association rate Kon, h20S β5) [M⁻¹ s⁻¹] | pKi ([1]; equilibrium constant) | interaction with DHA [2] | koff ([3]; read-out: Koff, h20S β2) [s⁻¹] | kon ([3]; read-out: association rate Kon, h20S β2) [M⁻¹ s⁻¹] | pKi ([3]; equilibrium constant) | koff (Pf20S β2; read-out: Koff, Pf 20S β2) [s⁻¹] | kon (Pf20S β2; read-out: association rate Kon, Pf 20S β2) [M⁻¹ s⁻¹] | pKi (Pf20S β2; equilibrium constant, read-out: Ki, P. falciparum β2) | interaction with DHA (earlier work) [4] | inhibition of GFP-DD degradation in the absence of Shield-1 [5] | LD50 (72 h), 3D7 B2a (3D7 B2a) [µM] |
| --- | --- | --- | --- | --- | --- | --- | --- | --- | --- | --- | --- | --- | --- | --- | --- | --- |
| CC(C)C[C@H](NC(=O)[C@H](Cc1ccccc1)NC(=O)Cc1ccc(O)cc1)B(O)O [MPI-4] | 0.000181 | 41800 | ~8.30 | 0.000109 | 848000 | 10.00 | pronounced synergistic interaction | 0.00485 | 9960 | 6.31 | 0.000173 | 27200 | ~8.30 |  |  |  |
| CC(C)C[C@H](NC(=O)[C@H](Cc1ccccc1)NC(=O)c1cnccn1)B(O)O [bortezomib, reference compound] |  |  |  |  |  |  |  |  |  |  |  |  |  | strong synergism | prevented GFP-DD degradation | 1.1 ± 0.1 |
| CC(=O)N1CCC[C@@H]1C(=O)N[C@@H](C)C(=O)N[C@@H](Cc1ccccc1)B(O)O [MPI-1] |  |  |  |  |  |  | pronounced synergistic interaction |  |  |  |  |  |  |  | a higher concentration of MPI-1 was needed to produce the same level of inhibition |  |
